Measured values reported in ChEMBL document CHEMBL1149861, “Inhibition of 15-lipoxygenase-catalysed oxygenation of arachidonic acid by substituted benzoic acids” (Bioorg Med Chem, 2008).

What follows are compounds tested on Glycine max (assay: Inhibition of soybean 15-lipoxygenase).
Work on `O=C(O)c1c(O)cccc1O` yielded an inhibition of 21.2%. In the case of `O=C(O)c1cc(O)ccc1O`, the inhibition is reported as 49.9%. `COc1cc(C(=O)O)ccc1O` gave an inhibition of 45.4%. Work on `O=C(O)c1ccccc1O` yielded an inhibition of 48.4%. Work on `O=C(O)c1ccc(O)cc1O` yielded an inhibition of 47.7%. `O=C(O)c1cccc(O)c1O` was tested, and the inhibition was 47%. With `O=C(O)c1cc(O)cc(O)c1` the inhibition was 58.1%. `O=C(O)c1ccc(O)c(O)c1` gave an inhibition of 73.3%. Compound `O=C(O)/C=C/c1ccc(O)c(O)c1` has an inhibition of 36.2%. `O=C(O)c1cccc(O)c1` was tested, and the inhibition was 46%. In the case of `O=C(O)c1ccccc1`, the inhibition is reported as 51.6%. Work on `O=C(O)c1ccc(O)cc1` yielded an inhibition of 47.6%. For `O=C(O)c1cc(O)c(O)c(O)c1`, the inhibition was 60.5%.
